From ChEMBL document CHEMBL3576797, “Pyridopyrimidinone Derivatives as Potent and Selective c-Jun N-Terminal Kinase (JNK) Inhibitors” (ACS Med Chem Lett, 2015)

Experiments:
[1] = Half life in mouse liver microsomes; format: ADME
[2] = Oral bioavailability in mouse at 3 mg/kg by LC-MS/MS analysis; format: ADME, organism-based; conditions: in vivo
[3] = Half life in human liver microsomes; format: ADME
[4] = Half life in mouse at 0.5 mg/kg, iv by LC-MS/MS analysis; format: ADME, organism-based; conditions: in vivo
[5] = Cmax in mouse at 0.5 mg/kg, iv by LC-MS/MS analysis; format: ADME, organism-based; parameters: dose 0.5 mg/kg, route intravenous; conditions: in vivo
[6] = AUC in mouse at 0.5 mg/kg, iv by LC-MS/MS analysis; format: ADME, organism-based; conditions: in vivo
[7] = Clearance in mouse at 0.5 mg/kg, iv by LC-MS/MS analysis; format: ADME, organism-based; conditions: in vivo
[8] = Volume of distribution in mouse at 0.5 mg/kg, iv by LC-MS/MS analysis; format: ADME, organism-based; conditions: in vivo

Q: With `CC(C)n1c(=O)ccc2cnc(N[C@H]3CC[C@H](O)CC3)nc21` as the compound, how does the half-life [1] read?
A: The half-life was 23 min.

Q: What about the bioavailability [2] of the same compound?
A: The bioavailability was 10%.

Q: And the half-life [3]?
A: The half-life was > 120 min.

Q: With `CCNC(=O)N[C@H]1CC[C@@H](Nc2ncc3ccc(=O)n(C(C)C)c3n2)CC1` as the compound, how does the half-life [1] read?
A: Its half-life is 8 min.

Q: What about the half-life [3] of the same compound?
A: Its half-life is 16 min.

Q: With `CC(C)C(=O)N[C@H]1CC[C@H](Nc2ncc3ccc(=O)n(C(C)C)c3n2)CC1` as the compound, how does the half-life [1] read?
A: The half-life was 19 min.

Q: What about the half-life [4] of the same compound?
A: The half-life was 30 min.

Q: What about the bioavailability [2] of the same compound?
A: Its bioavailability is 66%.

Q: What about the Cmax [5] of the same compound?
A: Its Cmax is 1000 nM.

Q: What about the AUC [6] of the same compound?
A: Its AUC is 0.7 µM·h.

Q: What about the clearance [7] of the same compound?
A: The clearance was 33 mL/min/kg.

Q: And the half-life [3]?
A: The half-life was 44 min.

Q: And the Vd [8]?
A: The Vd was 1.3 L/kg.

Q: Which half-life [1] does the source give for `CC(C)NC(=O)N[C@H]1CC[C@H](Nc2ncc3ccc(=O)n(C(C)C)c3n2)CC1` here?
A: Its half-life is 22 min.

Q: And the half-life [4]?
A: Its half-life is 66 min.

Q: What about the bioavailability [2] of the same compound?
A: The bioavailability was 87%.

Q: And the Cmax [5]?
A: The Cmax was 900 nM.

Q: And the AUC [6]?
A: Its AUC is 0.8 µM·h.

Q: What about the clearance [7] of the same compound?
A: Its clearance is 28 mL/min/kg.

Q: And the half-life [3]?
A: Its half-life is 76 min.

Q: What about the Vd [8] of the same compound?
A: Its Vd is 1.8 L/kg.

Q: With `CC(C)NC(=O)N[C@H]1CC[C@H](Nc2ncc3ccc(=O)n(C4CCCC4)c3n2)CC1` as the compound, how does the half-life [1] read?
A: Its half-life is 5 min.

Q: What about the half-life [3] of the same compound?
A: Its half-life is 7 min.

Q: Which half-life [1] does the source give for `CCNC(=O)N1CCC(Nc2ncc3ccc(=O)n(C(C)C)c3n2)CC1` here?
A: The half-life was 14 min.

Q: And the half-life [4]?
A: Its half-life is 24 min.

Q: What about the bioavailability [2] of the same compound?
A: Its bioavailability is 43%.

Q: And the Cmax [5]?
A: Its Cmax is 1100 nM.

Q: And the AUC [6]?
A: The AUC was 0.7 µM·h.

Q: And the clearance [7]?
A: Its clearance is 33 mL/min/kg.

Q: What about the half-life [3] of the same compound?
A: The half-life was 65 min.

Q: And the Vd [8]?
A: The Vd was 1 L/kg.

Q: For `CCNC(=O)N[C@H]1CC[C@H](Nc2ncc3ccc(=O)n(C(C)C)c3n2)CC1`, which half-life [1] is on record?
A: The half-life was 17 min.

Q: And the half-life [4]?
A: Its half-life is 18 min.

Q: And the bioavailability [2]?
A: The bioavailability was 100%.

Q: And the Cmax [5]?
A: The Cmax was 600 nM.

Q: What about the AUC [6] of the same compound?
A: Its AUC is 0.3 µM·h.

Q: And the clearance [7]?
A: Its clearance is 72 mL/min/kg.

Q: What about the half-life [3] of the same compound?
A: Its half-life is 46 min.

Q: And the Vd [8]?
A: Its Vd is 1.9 L/kg.
